Assay results published in patent publication US4415584A, “3-Oxo-6-oxa-2-azatricyclo 5.4.2. unadecene-4-carboxylate” (Beecham Group Limited, priority 1978, dated 1983).

What was measured:
P. mirabilis C889 [1] = assay: Antibacterial Activity (Example 4), M.I.C.; type: cell-based, Proteus mirabilis; conditions: compound alone
Staph. aureus Russell [2] = assay: Antibacterial Activity (Example 4), M.I.C.; type: cell-based; conditions: compound alone
E. coli JT39 [3] = assay: Antibacterial Activity (Example 4), M.I.C.; type: cell-based; conditions: compound alone
Kleb. aerogenes E70 [4] = assay: Antibacterial Activity (Example 4), M.I.C.; type: cell-based, Klebsiella aerogenes; conditions: compound alone
mice = assay: Toxicity, intraperitoneal administration to mice; type: in vivo; conditions: dosages up to 750 mg/kg
Method: The compound of Example 1 (Isomer II) was administered intraperitoneally to mice.

E. coli JT39 [5] = assay: Antibacterial Synergy (Example 13), MIC; type: cell-based
Method: (§1) The MIC's of ampicillin, the product of Example 10 (synergist) and ampicillin in the presence of the product of Example 10 were determined for a range of bacteria.

Klebsiella aerogenes E70 = assay: Antibacterial Synergy (Example 13), MIC; type: cell-based
Method: as §1

Proteus mirabilis C889 = assay: Antibacterial Synergy (Example 13), MIC; type: cell-based
Method: as §1

Staph. aureus Russell [6] = assay: Antibacterial Synergy (Example 13), MIC; type: cell-based
Method: as §1

E. coli E96 (RTEM) = type: in vivo, mice infected with E. coli; conditions: amoxycillin alone; printed × 2 (dosed at 1 and 5 hours after infection); mice
Method: Groups of mice were infected intraperitoneally with E. coli E96 (RTEM), and were then dosed at 1 and 5 hours after infection with amoxycillin or amoxycillin and the compound of Example 3.

Kleb. aerogenes E70 [7] = assay: Antibacterial Synergy (Example 4), MIC for ampicillin; type: cell-based, Klebsiella aerogenes; conditions: ampicillin alone, no inhibitor
P. mirabilis C889 [8] = assay: as above; type: cell-based, Proteus mirabilis; conditions: ampicillin alone, no inhibitor
Staph. aureus Russell [9] = assay: as above; type: cell-based; conditions: ampicillin alone, no inhibitor
E. coli JT39 [10] = assay: as above; type: cell-based; conditions: ampicillin alone, no inhibitor
[11] = ampicillin + synergist at 20 μg/ml

In the case of `O=C(OCc1ccccc1)C1CC=C2OC3CC(=O)N3C2C1` (single isomer, unassigned) [2 (Isomer II)], the M.I.C. (P. mirabilis C889 [1]) is reported as > 500 µg/mL, the M.I.C. (Staph. aureus Russell [2]) is reported as 62.5 µg/mL and the M.I.C. (E. coli JT39 [3]) is reported as > 500 µg/mL. The M.I.C. (Kleb. aerogenes E70 [4]) was > 500 µg/mL.
`COC(=O)C1CC=C2OC3CC(=O)N3C2C1` (single isomer, unassigned) [Example 1 (Isomer II)] was tested, and the M.I.C. (P. mirabilis C889 [1]) was > 500 µg/mL, the M.I.C. (Staph. aureus Russell [2]) was 125 µg/mL and the “deaths after 10 days” value (mice) was “no deaths were observed at dosages up to 750 mg/kg”. For the same compound, the M.I.C. (Kleb. aerogenes E70 [4]) was > 500 µg/mL.
For `O=C(O)C1CC=C2O[C@@H]3CC(=O)N3C2C1` (single isomer, unassigned) [Example 10], the MIC (E. coli JT39 [5]; Escherichia coli, synergist alone) was 16 µg/mL, the “MIC Ampicillin” value (E. coli JT39 [5]; [11]) was “inhibition” and the “MIC Ampicillin” value (Klebsiella aerogenes E70; [11]) was “inhibition”. The MIC (Klebsiella aerogenes E70; synergist alone) was 31.2 µg/mL, the “MIC Ampicillin” value (Proteus mirabilis C889; [11]) was “inhibition” and the MIC (Proteus mirabilis C889; synergist alone) was 31.2 µg/mL. It also gave an MIC (Staph. aureus Russell [6]; Staphylococcus aureus, synergist alone) of 125 µg/mL.
In the case of `CC1(C)S[C@@H]2[C@H](NC(=O)[C@H](N)c3ccc(O)cc3)C(=O)N2[C@H]1C(=O)O` [Amoxycillin, amoxycillin], the CD50 (E. coli E96 (RTEM)) is reported as 1000 mg/kg.
`O=C(O)[C@H]1CC=C2O[C@@H]3CC(=O)N3[C@H]2C1` [Example 3, Sodium (1S, 5R)-Δ^7,8-3-oxo-6-oxa-2-azatricyclo-[5.4.0.0^2,5]undecene-10-carboxylate] was tested, and the M.I.C. (P. mirabilis C889 [1]) was > 500 µg/mL, the M.I.C. (Staph. aureus Russell [2]) was 125 µg/mL and the M.I.C. (E. coli JT39 [3]) was 250 µg/mL. The M.I.C. (Kleb. aerogenes E70 [4]) was > 500 µg/mL.
In the case of `CC1(C)S[C@@H]2[C@H](NC(=O)[C@H](N)c3ccccc3)C(=O)N2[C@H]1C(=O)O` [ampicillin, reference compound], the “MIC Ampicillin” value (E. coli JT39 [5]; synergist concentration 0) is reported as > 2000 µg/mL, the “MIC Ampicillin” value (Klebsiella aerogenes E70; synergist concentration 0) is reported as 500 µg/mL and the “MIC Ampicillin” value (Proteus mirabilis C889; synergist concentration 0) is reported as > 2000 µg/mL. For the same compound, the “MIC Ampicillin” value (Staph. aureus Russell [6]; synergist concentration 0) was 500 µg/mL, the MIC for ampicillin (Kleb. aerogenes E70 [7]) was 2000 µg/mL and the MIC for ampicillin (P. mirabilis C889 [8]) was 2000 µg/mL. The MIC for ampicillin (Staph. aureus Russell [9]) was > 500 µg/mL and the MIC for ampicillin (E. coli JT39 [10]) was 500 µg/mL.
